Results published in patent US5663194A, “Chroman-2-ylmethylamino derivatives” (priority 1996, dated 1997).
pIC50: −log10 of the molar value.

Assays:
[1] = target: T1, dopamine autoreceptor (D2) (Rattus norvegicus, UniProt P61169); assay: Affinity for the dopamine autoreceptor: 3H-quinpirole (Quin.) binding in homogenized rat striatal brain tissue
T1 construct: homogenized rat striatal brain tissue is incubated with; from tissue; host or cells: rat striatal brain tissue, homogenized

[2] = target: T2, dopamine D-2 receptor (Rattus norvegicus, UniProt P61169); assay: Affinity for the dopamine D-2 receptor: 3H-spiroperidol (Spiper.) binding in homogenized limbic brain tissue; conditions: read-out: IC50 D2 Spiper.
T2 construct: homogenized limbic brain tissue is incubated with; from tissue; host or cells: limbic brain tissue, homogenized
T2 sequence (P61169 whole entry): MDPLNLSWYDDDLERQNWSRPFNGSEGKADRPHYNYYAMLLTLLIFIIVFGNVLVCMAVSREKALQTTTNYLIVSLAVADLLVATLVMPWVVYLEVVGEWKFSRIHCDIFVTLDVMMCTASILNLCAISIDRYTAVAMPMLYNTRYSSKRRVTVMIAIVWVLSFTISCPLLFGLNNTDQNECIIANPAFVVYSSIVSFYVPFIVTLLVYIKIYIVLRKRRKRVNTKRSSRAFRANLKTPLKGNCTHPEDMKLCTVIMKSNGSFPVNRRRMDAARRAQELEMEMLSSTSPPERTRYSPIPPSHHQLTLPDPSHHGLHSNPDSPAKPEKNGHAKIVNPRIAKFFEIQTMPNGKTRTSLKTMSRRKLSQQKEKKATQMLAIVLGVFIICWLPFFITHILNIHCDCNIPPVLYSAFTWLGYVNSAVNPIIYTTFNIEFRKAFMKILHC

[3] = target: T3, 5-HT1a (Homo sapiens, UniProt P08908); assay: 5-HT1a; assay type: binding
T3 sequence (P08908 1-422): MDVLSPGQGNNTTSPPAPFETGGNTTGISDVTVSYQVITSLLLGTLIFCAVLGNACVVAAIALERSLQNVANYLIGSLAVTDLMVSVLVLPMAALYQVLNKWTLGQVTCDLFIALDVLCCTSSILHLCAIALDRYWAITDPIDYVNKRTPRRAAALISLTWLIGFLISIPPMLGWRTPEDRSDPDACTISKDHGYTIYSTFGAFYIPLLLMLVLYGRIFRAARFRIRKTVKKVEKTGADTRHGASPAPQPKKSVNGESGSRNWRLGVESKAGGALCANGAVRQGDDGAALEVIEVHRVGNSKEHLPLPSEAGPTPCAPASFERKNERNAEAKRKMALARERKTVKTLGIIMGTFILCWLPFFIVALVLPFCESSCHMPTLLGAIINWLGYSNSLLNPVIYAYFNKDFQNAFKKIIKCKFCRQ

[4] = tested on: α1; assay: α1; assay type: binding

T1 sequence (P61169 whole entry): as the sequence (P61169 whole entry) above

| pIC50 [1] | pIC50 [2] | pIC50 [3] | Compound | pIC50 [4] |
| --- | --- | --- | --- | --- |
| 6.74 | 5.31 | 6.66 | CCCNCC1CCc2ccc(NS(C)(=O)=O)cc2O1 (centres unmarked) [Example 1c, N-(2-Propylaminomethyl-chroman-7-yl)-methanesulfonamide] | 5.85 |
| – | – | – | c1ccc(CNCC2CCc3ccccc3O2)cc1 (centres unmarked) [reference compound] | 6.20 |
